The text below walks through data of PubChem BioAssay (NCI).

Test systems include HOP-62 NSCLC; RXF 393 renal; SK-MEL-28 melanoma; SR leukemia; OVCAR-4 ovarian; A549 NSCLC; HCT-15 colon; IGROV1 ovarian; BT-549 breast; KM12 colon.
What all share (assay): NCI anticancer screen, dose series, 48 h

“And” between values parts separate entries of the source, which are not always exact repeats. Equal entries are not always repeated.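 A five-concentration, 48-hour dose response in 96-well plates underlies each endpoint, interpolated linearly between surrounding concentrations. GI50: concentration for 50% inhibition of growth. TGI marks complete inhibition of growth.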 Bounds are passed on as bounds.

On to `COc1ccc(CCN2CCCn3c2nc2ccccc2c3=O)cc1`, for which the GI50 in the assay with HOP-62 NSCLC is 0.084 µM; with RXF 393 renal it was 0.2 µM; with SK-MEL-28 melanoma it was 2.42 µM; in the assay on SR leukemia it was 0.0448 µM; in the assay on OVCAR-4 ovarian it was 0.353 µM; in the assay on A549 NSCLC, 0.087 µM. For the same compound, the GI50 was 0.0444 µM in the assay with HCT-15 colon, 0.109 µM in the assay with IGROV1 ovarian, 0.717 µM in the assay on BT-549 breast and 0.0445 µM in the assay with KM12 colon. Moreover, the TGI in the assay with HOP-62 NSCLC is above 61.8 µM; with RXF 393 renal, 35.8 µM; in the assay on SK-MEL-28 melanoma it was above 100 µM; with SR leukemia it was above 100 µM; in the assay with OVCAR-4 ovarian, above 100 µM; in the assay with A549 NSCLC it was above 100 µM. For the same compound, the TGI in the assay with HCT-15 colon is above 100 µM; in the assay on IGROV1 ovarian it was above 100 µM; with BT-549 breast, above 100 µM; in the assay with KM12 colon, above 20.5 µM.
`COc1ccc2[nH]c3c(C)c4c(c(C)c3c2c1)CN(C)C=C4`: the TGI with HOP-62 NSCLC was determined as 3.53 µM; in the assay on RXF 393 renal, 30.4 µM; in the assay on SK-MEL-28 melanoma, 13.5 µM; with SR leukemia, 46.3 µM; with OVCAR-4 ovarian, 18.2 µM; in the assay on A549 NSCLC, 23.6 µM. For the same compound, the TGI in the assay with HCT-15 colon was 75.1 µM; in the assay with IGROV1 ovarian it was 39.8 µM; with BT-549 breast, 4.41 µM; in the assay on KM12 colon, 10.6 µM.
As for `CCN1C(=O)N(CC)C2C1NN=c1s/c(=C3\C(=O)Nc4ccccc43)c(=O)n12` (configuration not stated), the GI50 in the assay on HOP-62 NSCLC was 0.734 µM; in the assay with RXF 393 renal, 0.279 µM; in the assay with SK-MEL-28 melanoma, 0.891 µM; with SR leukemia, 0.292 µM; with OVCAR-4 ovarian it was above 59.1 µM; in the assay on A549 NSCLC it was 0.812 µM. Moreover, the GI50 with HCT-15 colon is 0.41 µM; in the assay on IGROV1 ovarian it was 0.616 µM; in the assay on BT-549 breast, 1.06 µM; in the assay on KM12 colon, 0.452 µM. Further, the TGI with HOP-62 NSCLC was 25.8 µM; with RXF 393 renal it was 1.05 µM; with SK-MEL-28 melanoma, above 100 µM; in the assay on SR leukemia, above 62 µM; in the assay with OVCAR-4 ovarian, above 100 µM; with A549 NSCLC, above 100 µM. Further, the TGI in the assay on HCT-15 colon was above 100 µM; in the assay with IGROV1 ovarian, 24.6 µM; in the assay on BT-549 breast, 32.3 µM; with KM12 colon it was above 100 µM.
Turning to `CCc1nc(N)nc(N)c1C#CC(C)c1ccc(-c2ccncc2)cc1Cl` (configuration not stated), the GI50 in the assay with HOP-62 NSCLC was 0.0266 µM and 0.0528 µM; with RXF 393 renal, 0.141 µM and 0.312 µM; in the assay with SK-MEL-28 melanoma it was 0.0645 µM and 0.375 µM; in the assay with A549 NSCLC, below 0.005 µM; in the assay with HCT-15 colon, < 0.005 µM and 0.0127 µM; in the assay with IGROV1 ovarian, < 0.005 µM and 0.0323 µM. In the assay with KM12 colon, the GI50 was 0.0271 µM and 0.0678 µM. The TGI was 1.92 µM and 13.9 µM in the assay on HOP-62 NSCLC; 2.12 µM and 7.44 µM in the assay on RXF 393 renal; 4.52 µM and 17 µM in the assay with SK-MEL-28 melanoma; 2.27 µM and 6.27 µM in the assay on SR leukemia; 7.39 µM and 26.2 µM in the assay on OVCAR-4 ovarian; 2 µM and 11.4 µM in the assay with A549 NSCLC. Besides, the TGI in the assay with HCT-15 colon was 5.24 µM and 11.9 µM; in the assay with IGROV1 ovarian, 6.71 µM and 19.1 µM; in the assay with BT-549 breast it was 2.8 µM and 12.1 µM; in the assay with KM12 colon, 5.73 µM and 14.5 µM.
As for `O=C(O)CCC(O)=C1S(=O)(=O)OCCOS1(=O)=O`, the TGI in the assay on HOP-62 NSCLC, in the assay on RXF 393 renal, in the assay with SK-MEL-28 melanoma, in the assay on SR leukemia, in the assay on OVCAR-4 ovarian and in the assay on A549 NSCLC was above 100 µM each time. Further, the TGI with HCT-15 colon, in the assay with IGROV1 ovarian, with BT-549 breast and in the assay on KM12 colon was above 100 µM throughout.
